Test results taken from patent US9695155B2, “Herbicidal substituted pyrimidinyloxy benzene compounds” (E. I. DU PONT DE NEMOURS AND COMPANY, priority 2013, dated 2017).

Key:
pigweed [1] = assay: Test A postemergence; assay type: in vivo, Amaranthus retroflexus; details: for Plant response rating, Pigweed: 31 g ai/ha, 0 to 100 scale, 0 no effect, 100 complete control
Method in brief: (§1)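 Pre- and postemergence greenhouse screen. Soil: loam + sand. Spray carrier: solvent mixture, non-phytotoxic, with surfactant. Post timing at 1–2 leaves, height 2–10 cm. Readout: visual injury on a 0–100 scale roughly 10 days after application, untreated plants as reference.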

kochia [2] = assay: Test A postemergence; assay type: in vivo, Kochia scoparia
Method in brief: as §1

Heteranthera limosa = assay: Test B flooded paddy test; assay type: in vivo; details: Flood, 250 g ai/ha; 0 to 100 scale where 0 is no effect and 100 is complete control
Method in brief: (§2)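 Post-emergence paddy-water application at the 2-leaf stage, with 3 cm flood kept for the whole test. Response was judged visually relative to controls after 13 to 15 greenhouse days, 0 indicating no effect and 100 complete control.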

wheat = assay: Test A postemergence; assay type: in vivo, Triticum aestivum; details: for Plant response rating, Wheat: 31 g ai/ha, 0 to 100 scale, 0 no effect, 100 complete control
Method in brief: as §1

pigweed [3] = assay: Test A preemergence; assay type: in vivo, Amaranthus retroflexus; details: for Pigweed plant response rating (0 to 100 scale): 31 g ai/ha; for Plant response rating, Pigweed: 125 g ai/ha, 0 to 100 scale where 0 is no effect and 100 is complete control
Method in brief: as §1

corn = assay: Test A postemergence; assay type: in vivo, Zea mays
Method in brief: as §1

ragweed [4] = assay: Test A preemergence; assay type: in vivo, Ambrosia elatior; details: for Ragweed plant response rating (0 to 100 scale): 31 g ai/ha; for Plant response rating, Ragweed: 125 g ai/ha, 0 to 100 scale where 0 is no effect and 100 is complete control
Method in brief: as §1

ragweed [5] = assay: Test A postemergence; assay type: in vivo, Ambrosia elatior; details: for Plant response rating, Ragweed: 31 g ai/ha, 0 to 100 scale, 0 no effect, 100 complete control
Method in brief: as §1

rice = assay: Test B flooded paddy test; assay type: in vivo, Oryza sativa; details: Flood, 250 g ai/ha; 0 to 100 scale where 0 is no effect and 100 is complete control
Method in brief: as §2

giant foxtail [6] = assay: Test A preemergence; assay type: in vivo, Setaria faberii; details: for Foxtail, Giant plant response rating (0 to 100 scale): 31 g ai/ha; for Plant response rating, Foxtail, Giant: 125 g ai/ha, 0 to 100 scale where 0 is no effect and 100 is complete control
Method in brief: as §1

barnyardgrass [7] = assay: Test A postemergence; assay type: in vivo, Echinochloa crus-galli
Method in brief: as §1

barnyardgrass [8] = assay: Test A preemergence; assay type: in vivo, Echinochloa crus-galli; details: for Barnyardgrass plant response rating (0 to 100 scale): 31 g ai/ha; for Plant response rating, Barnyardgrass: 125 g ai/ha, 0 to 100 scale where 0 is no effect and 100 is complete control
Method in brief: as §1

galium = assay: Test A postemergence; assay type: in vivo, Galium aparine
Method in brief: as §1

giant foxtail [9] = assay: Test A postemergence; assay type: in vivo, Setaria faberii
Method in brief: as §1

kochia [10] = assay: Test A preemergence; assay type: in vivo, Kochia scoparia; details: for Kochia plant response rating (0 to 100 scale): 31 g ai/ha; for Plant response rating, Kochia: 125 g ai/ha, 0 to 100 scale where 0 is no effect and 100 is complete control
Method in brief: as §1

Italian ryegrass [11] = assay: Test A preemergence; assay type: in vivo, Lolium multiflorum; details: for Ryegrass, Italian plant response rating (0 to 100 scale): 31 g ai/ha; for Plant response rating, Ryegrass, Italian: 125 g ai/ha, 0 to 100 scale where 0 is no effect and 100 is complete control
Method in brief: as §1

Italian ryegrass [12] = assay: Test A postemergence; assay type: in vivo, Lolium multiflorum; details: for Plant response rating, Ryegrass, Italian: 31 g ai/ha, 0 to 100 scale, 0 no effect, 100 complete control
Method in brief: as §1

sedge, umbrella = assay: Test B flooded paddy test; assay type: in vivo, Cyperus difformis; details: Flood, 250 g ai/ha; 0 to 100 scale where 0 is no effect and 100 is complete control
Method in brief: as §2

barnyardgrass [13] = assay: Test B flooded paddy test; assay type: in vivo, Echinochloa crus-galli; details: Flood, 250 g ai/ha; 0 to 100 scale where 0 is no effect and 100 is complete control
Method in brief: as §2

blackgrass = assay: Test A postemergence; assay type: in vivo, Alopecurus myosuroides
Method in brief: as §1

[14] = 31 g ai/ha, 0 to 100 scale, 0 no effect, 100 complete control
[15] = 125 g ai/ha, 0 to 100 scale where 0 is no effect and 100 is complete control

Clc1cnc(Oc2ccccc2-n2ccnc2)nc1 [Compound 100]
Plant response rating, Pigweed (pigweed [1]): 0 | Plant response rating, Kochia (kochia [2]; [14]): 0 | Plant response rating, Kochia (kochia [2]; [15]): 0 | Plant response rating, Ducksalad (Heteranthera limosa): 0 | Plant response rating, Wheat (wheat): 0 | Pigweed plant response rating (0 to 100 scale) (pigweed [3]): 0 | Plant response rating, Pigweed (pigweed [3]): 0 | Plant response rating, Corn (corn; [14]): 0 | Plant response rating, Corn (corn; [15]): 0 | Ragweed plant response rating (0 to 100 scale) (ragweed [4]): 0 | Plant response rating, Ragweed (ragweed [4]): 0 | Plant response rating, Ragweed (ragweed [5]): 0 | Plant response rating, Rice (rice): 0 | Foxtail, Giant plant response rating (0 to 100 scale) (giant foxtail [6]): 0 | Plant response rating, Foxtail, Giant (giant foxtail [6]): 0 | Plant response rating, Barnyardgrass (barnyardgrass [7]; [14]): 0 | Plant response rating, Barnyardgrass (barnyardgrass [7]; [15]): 0 | Barnyardgrass plant response rating (0 to 100 scale) (barnyardgrass [8]): 0 | Plant response rating, Barnyardgrass (barnyardgrass [8]): 0 | Plant response rating, Galium (galium; [14]): 0 | Plant response rating, Galium (galium; [15]): 10 | Plant response rating, Foxtail, Giant (giant foxtail [9]; [14]): 0 | Plant response rating, Foxtail, Giant (giant foxtail [9]; [15]): 0 | Kochia plant response rating (0 to 100 scale) (kochia [10]): 0 | Plant response rating, Kochia (kochia [10]): 0 | Ryegrass, Italian plant response rating (0 to 100 scale) (Italian ryegrass [11]): 0 | Plant response rating, Ryegrass, Italian (Italian ryegrass [11]): 0 | Plant response rating, Ryegrass, Italian (Italian ryegrass [12]): 0 | Plant response rating, Sedge, Umbrella (sedge, umbrella): 0 | Plant response rating, Barnyardgrass (barnyardgrass [13]): 15 | Plant response rating, Blackgrass (blackgrass; [14]): 0 | Plant response rating, Blackgrass (blackgrass; [15]): 0

CCCOc1cnn(-c2c(F)cccc2Oc2ncc(Cl)cn2)c1 [Compound 127]
Plant response rating, Pigweed (pigweed [1]): 20 | Pigweed plant response rating (pigweed [1]; [15]): 30 | Plant response rating, Kochia (kochia [2]; [14]): 0 | Kochia plant response rating (kochia [2]; [15]): 30 | Plant response rating, Ducksalad (Heteranthera limosa): 60 | Plant response rating, Wheat (wheat): 0 | Wheat plant response rating (wheat; [15]): 0 | Pigweed plant response rating (0 to 100 scale) (pigweed [3]): 0 | Plant response rating, Pigweed (pigweed [3]): 10 | Plant response rating, Corn (corn; [14]): 0 | Corn plant response rating (corn; [15]): 10 | Ragweed plant response rating (0 to 100 scale) (ragweed [4]): 0 | Plant response rating, Ragweed (ragweed [4]): 0 | Plant response rating, Ragweed (ragweed [5]): 0 | Ragweed plant response rating (ragweed [5]; [15]): 10 | Plant response rating, Rice (rice): 0 | Foxtail, Giant plant response rating (0 to 100 scale) (giant foxtail [6]): 10 | Plant response rating, Foxtail, Giant (giant foxtail [6]): 60 | Plant response rating, Barnyardgrass (barnyardgrass [7]; [14]): 0 | Barnyardgrass plant response rating (barnyardgrass [7]; [15]): 10 | Barnyardgrass plant response rating (0 to 100 scale) (barnyardgrass [8]): 0 | Plant response rating, Barnyardgrass (barnyardgrass [8]): 40 | Plant response rating, Galium (galium; [14]): 10 | Galium plant response rating (galium; [15]): 20 | Plant response rating, Foxtail, Giant (giant foxtail [9]; [14]): 0 | Foxtail, Giant plant response rating (giant foxtail [9]; [15]): 20 | Kochia plant response rating (0 to 100 scale) (kochia [10]): 0 | Plant response rating, Kochia (kochia [10]): 0 | Ryegrass, Italian plant response rating (0 to 100 scale) (Italian ryegrass [11]): 0 | Plant response rating, Ryegrass, Italian (Italian ryegrass [11]): 0 | Plant response rating, Ryegrass, Italian (Italian ryegrass [12]): 0 | Ryegrass, Italian plant response rating (Italian ryegrass [12]; [15]): 0 | Plant response rating, Sedge, Umbrella (sedge, umbrella): 0 | Plant response rating, Barnyardgrass (barnyardgrass [13]): 0 | Plant response rating, Blackgrass (blackgrass; [14]): 0 | Blackgrass plant response rating (blackgrass; [15]): 10

Fc1cnc(Oc2cccc(Cl)c2-n2cc(OC(F)F)cn2)nc1 [Compound 101]
Plant response rating, Pigweed (pigweed [1]): 90 | Plant response rating, Kochia (kochia [2]; [14]): 70 | Plant response rating, Kochia (kochia [2]; [15]): 100 | Plant response rating, Ducksalad (Heteranthera limosa): 0 | Plant response rating, Wheat (wheat): 20 | Pigweed plant response rating (0 to 100 scale) (pigweed [3]): 90 | Plant response rating, Pigweed (pigweed [3]): 100 | Plant response rating, Corn (corn; [14]): 10 | Plant response rating, Corn (corn; [15]): 20 | Ragweed plant response rating (0 to 100 scale) (ragweed [4]): 0 | Plant response rating, Ragweed (ragweed [4]): 30 | Plant response rating, Ragweed (ragweed [5]): 50 | Plant response rating, Rice (rice): 0 | Foxtail, Giant plant response rating (0 to 100 scale) (giant foxtail [6]): 70 | Plant response rating, Foxtail, Giant (giant foxtail [6]): 90 | Plant response rating, Barnyardgrass (barnyardgrass [7]; [14]): 20 | Plant response rating, Barnyardgrass (barnyardgrass [7]; [15]): 20 | Barnyardgrass plant response rating (0 to 100 scale) (barnyardgrass [8]): 60 | Plant response rating, Barnyardgrass (barnyardgrass [8]): 70 | Plant response rating, Galium (galium; [14]): 40 | Plant response rating, Galium (galium; [15]): 60 | Plant response rating, Foxtail, Giant (giant foxtail [9]; [14]): 20 | Plant response rating, Foxtail, Giant (giant foxtail [9]; [15]): 60 | Kochia plant response rating (0 to 100 scale) (kochia [10]): 70 | Plant response rating, Kochia (kochia [10]): 70 | Ryegrass, Italian plant response rating (0 to 100 scale) (Italian ryegrass [11]): 0 | Plant response rating, Ryegrass, Italian (Italian ryegrass [11]): 0 | Plant response rating, Ryegrass, Italian (Italian ryegrass [12]): 0 | Plant response rating, Sedge, Umbrella (sedge, umbrella): 0 | Plant response rating, Barnyardgrass (barnyardgrass [13]): 0 | Plant response rating, Blackgrass (blackgrass; [14]): 20 | Plant response rating, Blackgrass (blackgrass; [15]): 20
